Results taken from PMC7586456 (ACS Pharmacology & Translational Science, 2020).
Read-outs that look alike come from different tables or passages of the source.

Columns and labels:
[1] = test system: SARS CoV-2 (USA_WA1/2020)
Huh7 cells = conditions: human
Vero E6 cells [2] = test system: Vero E6 cells
MERS-S PP [3] = format: cell-based, MERS-CoV
SARS-S PP [4] = format: cell-based, SARS-CoV
VSV-G PP [5] = assay: microbe, parasite or virus in culture; format: cell-based, Vesicular stomatitis virus; conditions: for EC50: Vesicular stomatitis virus, Huh-7, read-out: VSV-G PP in Huh7 EC50
MERS-S PP [6] = format: cell-based, MERS-CoV; remark: listed apart in the source
in vitro = conditions: human
Vero E6 cells [7] = test system: Vero E6 cells; remark: listed apart in the source
[8] = test system: SARS CoV-2 (USA_WA1/2020); conditions: cited from earlier work
VSV-G PP [9] = format: cell-based, Vesicular stomatitis virus
SARS-S PP [10] = format: cell-based, SARS-CoV; remark: listed apart in the source

Compound | safety ratio (CC50 of Vero E6 CPE counter screen divided by EC50 of SARS-CoV-2 CPE assay) ([1]; African green monkey) | Huh7 cytotoxicity cytotox (Huh7 cells) [%] | Vero E6 cytotoxicity cytotox (SARS-CoV-2 CPE counter screen) (Vero E6 cells [2]; African green monkey) [%] | MERS-S PP in Huh7 efficacy (MERS-S PP [3]) [%] | VSV-G PP in Huh7 efficacy (VSV-G PP [5]) [%] | EC50 (VSV-G PP [5]) [µM] | CC50 (in vitro) [µM] | Vero E6 cytotoxicity cytotox (Vero E6 cells [7]; African green monkey) | VSV-G PP in Vero E6 efficacy (VSV-G PP [9]) [%] | SARS-S PP in Vero E6 efficacy (SARS-S PP [10]) [%] | further results
CCN1CCN(Cc2ccc(Nc3ncc(F)c(-c4cc(F)c5nc(C)n(C(C)C)c5c4)n3)nc2)CC1 [abemaciclib] | 6.3 | 90.0 | 34.0 | 82.3 | 27.1 | > 57.5 | 17.1 | – | – | – | selectivity toward SARS-S-based entry compared with VSV-G in Calu-3 cells (SARS-S PP [4]): > 10 fold; selectivity toward MERS-S-based entry compared with VSV-G in Calu-3 cells (MERS-S PP [6]): > 10 fold
COc1ccc2cc1Oc1ccc(cc1)C[C@H]1c3c(cc4c(c3Oc3cc5c(cc3OC)CCN(C)[C@@H]5C2)OCO4)CCN1C [cepharanthine] | – | 88.9 | 99.0 | 108.4 | 115.3 | 24.2 | 38.3 | 106.2% | 76.9 | 90.9 | SARS-CoV-2 CPE efficacy [1]: 92.5%; block of SARS-CoV-2 induced CPE in Vero E6 cells (in words) [8]: able to block SARS-CoV-2 induced CPE in Vero E6 cells, only when added during the viral entry time period, and not the postentry period
CN(C)CCCN1c2ccccc2CCc2ccc(Cl)cc21 [clomipramine] | – | – | – | – | – | – | – | – | – | – | cytotoxicity in the primary screen (in words) (Vero E6 cells [7]): noncytotoxic; protection against SARS-CoV-2 CPE (in words) [8]: protect against SARS-CoV-2 CPE; activity against SARS-S PP entry in the primary screen (in words) (SARS-S PP [10]): active against SARS-S PP entry
COc1c(OCCCN2CCOCC2)ccc2c1N=C(NC(=O)c1cnc(N)nc1)N1CCN=C21 [copanlisib] | – | 13.6 | 42.4 | 65.8 | 6.2 | > 57.5 | > 57.5 | – | – | – | SARS-CoV-2 CPE efficacy [1]: 0.0%
CC1=C[C@]23C(=O)[C@@H](C=C(CO)[C@@H](O)[C@]2(O)[C@H]1O)[C@H]1[C@@H](C[C@H]3C)C1(C)C [ingenol] | 355.7 | – | 0.0 | – | – | – | – | –4.0% | 76.4 | 93.3 | activity in MERS-S PP entry in Huh7 cells (in words) (MERS-S PP [3]): not in MERS-S entry in Huh7 cells; selectivity ratio (EC50 of VSV-G PP entry divided by SARS-S PP entry EC50) (SARS-S PP [10]): 12.0
C=CC(=O)Nc1cc(Nc2nccc(-c3cn(C)c4ccccc34)n2)c(OC)cc1N(C)CCN(C)C [osimertinib] | 2.5 | – | 99.7 | – | – | – | – | 99.6% | 118.4 | 117.5 | selectivity ratio (EC50 of VSV-G PP entry divided by SARS-S PP entry EC50) (SARS-S PP [10]): 15.8
CC(CN(C)C)CN1c2ccccc2CCc2ccccc21 (stereo not drawn) [trimipramine] | 1.0 | – | 16.6 | – | – | – | – | 16.6% | 29.2 | 90.9 | entry inhibition activity in Calu-3 cells (in words) (SARS-S PP [4]): not confirmed
colforsin [NKH477] | – | – | – | – | – | – | – | – | 0 | 71.4 | safety ratio (CC50 of Vero E6 CPE counter screen divided by EC50 of SARS-CoV-2 CPE assay) [1]: 1.1; EC50 ([1]; read-out: SARS-CoV-2 CPE EC50): 23.1 µM; CC50 (Vero E6 cells [7]): > 57.5 µM; Vero E6 cytotoxicity cytotox (Vero E6 cells [7]): 0%; EC50 (VSV-G PP [9]; read-out: VSV-G PP in Vero E6 EC50): > 57.5 µM; CC50 (Vero E6 cells [2]): 25.2 µM; Vero E6 cytotoxicity cytotox (SARS-CoV-2 CPE counter screen) (Vero E6 cells [2]): 42.0%; activity in MERS-S PP entry in Huh7 cells (in words) (MERS-S PP [3]): not in MERS-S entry in Huh7 cells; EC50 (SARS-S PP [10]; read-out: SARS-S PP in Vero E6 EC50): 1.36 µM
